Data: patent publication US12172975B2, “1H-indazole carboxamides as receptor-interacting protein kinase 1 inhibitors (RIPK1)” (BRISTOL-MYERS SQUIBB COMPANY, priority 2018, dated 2024)
Where a name gives a salt, the structure may show the parent alone. Read-outs that look alike come from different tables or passages of the source.

Tests used:
[1] = biological target: His-GST-TVMV-hRIPK1 (1-324) (Homo sapiens (Human), UniProt Q13546); test: RIPK1 HTRF Binding Assay; details: read-out: RIPK1 HTRF (IC50); FRET probe displacement, 1 h at rt
His-GST-TVMV-hRIPK1 (1-324), sequence (Q13546 1-324): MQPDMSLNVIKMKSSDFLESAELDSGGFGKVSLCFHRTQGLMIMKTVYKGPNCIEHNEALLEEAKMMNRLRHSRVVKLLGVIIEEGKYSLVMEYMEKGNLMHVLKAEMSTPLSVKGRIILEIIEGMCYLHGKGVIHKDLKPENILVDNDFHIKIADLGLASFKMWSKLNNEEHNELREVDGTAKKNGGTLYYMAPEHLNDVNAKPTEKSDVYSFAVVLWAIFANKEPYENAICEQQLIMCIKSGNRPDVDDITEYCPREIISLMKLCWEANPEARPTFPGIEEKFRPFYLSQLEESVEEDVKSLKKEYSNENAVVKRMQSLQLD

[2] = tested on: MLKL phosphorylation in HT29-L23 human colorectal adenocarcinoma cells; test: MLKL Phosphorylation High-Content Assay; format: cell-based; details: 6 h, necroptosis induced with TNFα, SMAC mimetic and Z-VAD, read-out: pMLKL (IC50)
In short: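 HT29-L23 cells were induced to necroptosis with TNFα (35 ng/mL), SMAC mimetic (700 nM) and Z-VAD (140 nM) for 6 h at 37 °C. Phospho-MLKL (S358) immunofluorescence was imaged and quantified per cell; maximal inhibition set by Nec-1s (6.25 μM), and IC50/Ymax from 4-parameter logistic fit.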

| Structure (SMILES) | IC50 [1] [nM] | IC50 ([2]; Homo sapiens) [nM] | IC50 [2] [nM] |
| --- | --- | --- | --- |
| [2H]C([2H])([2H])Oc1ncc(-c2ccc3c(C(=O)NC)n[nH]c3c2)cc1C(=O)NC([2H])([2H])c1ccccc1OC(F)(F)F [Example 16, 6-(6-methoxy D3-5-((2-(trifluoromethoxy)benzyl D2)carbamoyl)pyridin-3-yl)-N-methyl-1H-indazole-3-carboxamide] | 2.2 | 8.6 | – |
| CNC(=O)c1n[nH]c2cc(-c3cnc(OC)c(C(=O)NCCCOc4ccc(F)cc4)c3)ccc12 [Example 63, 6-(5-{[3-(4-fluorophenoxy)-propyl]carbamoyl}-6-methoxy-pyridin-3-yl)-N-methyl-1H-indazole-3-carboxamide] | 2.3 | 16 | – |
| [2H]C([2H])([2H])NC(=O)c1n[nH]c2cc(-c3cnc(OC([2H])([2H])[2H])c(C(=O)N[C@H](C)c4cccc(C(F)(F)F)c4)c3)ccc12 [Example 3, (R)-6-(6-(methoxy-d3)-5-((1-(3-(trifluoromethyl)phenyl)ethyl)carbamoyl)pyridin-3-yl)-N-(methyl-d3)-1H-indazole-3-carboxamide] | 46 | 41 | – |
| CNC(=O)c1n[nH]c2cc(-c3cnc(OC)c(C(=O)NCc4cccc(OCC5CCC5)c4)c3)ccc12 [Example 115, 6-[5-({[3-(cyclobutylmeth-oxy)phenyl]methyl}carbam-oyl)-6-methoxypyridin-3-yl]-N-methyl-1H-indazole-3-carboxamide] | 0.04 | – | 100 |
| CNC(=O)c1n[nH]c2cc(-c3cnc(OC)c(C(=O)NCc4ccccc4OCC4CCC4)c3)ccc12 [Example 86, 6-[5-({[2-(cyclobutylmethoxy)-phenyl]methyl}carbamoyl)-6-methoxypyridin-3-yl]-N-methyl-1H-indazole-3-carbox-amide] | 2.4 | – | 4.1 |
| CNC(=O)c1n[nH]c2cc(-c3cnc(C)c(C(=O)NC(C)c4cccc(OC(F)(F)F)c4)c3)ccc12 (single isomer, unassigned) [Example 156, N-methyl-6-[6-methyl-5-({1-[3-(tri-fluoromethoxy)phenyl]ethyl}car-bamoyl)pyridin-3-yl]-1H-indazole-3-carboxamide] | 3.7 | – | 7.9 |
| CCNC(=O)c1n[nH]c2cc(-c3cnc(OC)c(C(=O)N[C@@H](C)c4cc(C(F)(F)F)ccc4F)c3)ccc12 [Example 236, N-[(1,1,2,2,2-deutero)ethyl]-6-(5-{[(1S)-1-[2-fluoro-5-(trifluorometh-yl)phenyl](2,2,2-deutero)ethyl]-carbamoyl}-6-(deutero)methoxy-pyridin-3-yl)-1H-indazole-3-carbox-amide] | 37 | – | 40 |
| CNC(=O)c1n[nH]c2cc(-c3cnc(OC)c(C(=O)NCc4ccccc4CN(C)C)c3)ccc12 [Example 54, 6-{5-[({2-[(dimethylamino)-methyl]phenyl}methyl)carbam-oyl]-6-methoxypyridin-3-yl}-N-methyl-1H-indazole-3-carboxamide] | 28 | – | 120 |
| CNC(=O)c1n[nH]c2cc(-c3cnc(OC)c(C(=O)NCC4(COc5ccccc5)CC4)c3)ccc12 [Example 68, 6-[6-methoxy-5-({[1-(phenoxy-methyl)cyclopropyl]methyl}-carbamoyl)-pyridin-3-yl]-N-methyl-1H-indazole-3-carbox-amide] | 4.6 | – | 28 |
| CNC(=O)c1n[nH]c2cc(-c3cnc(C)c(C(=O)N[C@H]4CC[C@@H](c5ccccc5)C4)c3)ccc12 [Example 154, N-methyl-6-(6-methyl-5-{[(1S,3R)-3-phenylcyclopentyl]carbamoyl}-pyridin-3-yl)-1H-indazole-3-carbox-amide] | 2.9 | – | 58 |
| CNC(=O)c1n[nH]c2cc(-c3cnc(OC)c(C(=O)N[C@@H](C)CC(=O)OC(C)(C)C)c3)cc(F)c12 [Example 146, tert-butyl (3S)-3-({5-[4-fluoro-3-(methylcarbamoyl)-1H-indazol-6-yl]-2-methox-pyridin-3-yl}formamido)-butanoate] | 69 | 400 | – |
| [2H]C([2H])([2H])Oc1ncc(-c2ccc3c(C(=O)NCC4CC4)n[nH]c3c2)cc1C(=O)NCCC(=O)OC(C)(C)C [Example 165, tert-butyl 3-[(5-{3-[(cyclopropyl-methyl)carbamoyl]-1H-indazol-6-yl}-2-(deutero)methoxypyridin-3-yl)formamido]propanoate] | 140 | 15 | – |
| COc1ncc(-c2ccc3c(C(=O)NC4CC4)n[nH]c3c2)cc1C(=O)N[C@@H](C)c1cc(C(F)(F)F)ccc1F [Example 208, N-cyclopropyl-6-(5-{[(1S)-1-[2-fluoro-5-(trifluoromethyl)phenyl]-(2,2,2-deutero)ethyl]carbamoyl}-6-(deutero)methoxypyridin-3-yl)-1H-indazole-3-carboxamide, TFA] | 27 | – | 18 |
| CNC(=O)c1n[nH]c2cc(-c3cnc(OC)c(C(=O)NCc4cccnc4OCC4CCC4)c3)ccc12 [Example 112, 6-[5-({[2-(cyclobutylmeth-oxy)pyridin-3-yl]methyl}-carbamoyl)-6-methoxypyridin-3-yl]-N-methyl-1H-indazole-3-carboxamide] | 4.8 | 7.6 | – |
| CNC(=O)c1n[nH]c2cc(-c3cnc(OC)c(C(=O)NCCC(O)c4ccc(Cl)cn4)c3)ccc12 (stereo not shown) [Example 65, 6-(5-{[3-(5-chloropyridin-2-yl)-3-hydroxypropyl]carbamoyl}-6-methoxypyridin-3-yl)-N-methyl-1H-indazole-3-carbox-amide] | 8.3 | – | 1.6 |
| [2H]C([2H])([2H])Oc1ncc(-c2ccc3c(C(=O)NC)n[nH]c3c2)cc1C(=O)N[C@H](C)c1cccc(C(F)(F)F)c1 [Example 34, 6-[6-(deutero)methoxy-5-{[(1R)-1-[3-(trifluoromethyl)phenyl]-ethyl]carbamoyl}pyridin-3-yl]-N-methyl-1H-indazole-3-carbox-amide] | 57 | 92 | – |
| [2H]C([2H])([2H])Oc1ncc(-c2ccc3c(C(=O)NC4CC4)n[nH]c3c2)cc1C(=O)N[C@@H](C)c1cc(C(F)(F)F)ccc1F [Example 194, N-cyclopropyl-6-(5-{[(1S)-1-[2-fluoro-5-(trifluoromethyl)phenyl]-ethyl]carbamoyl}-6-(deutero)meth-oxypyridin-3-yl)-1H-indazole-3-carboxamide] | 67 | 52 | – |
| [2H]C([2H])([2H])Oc1ncc(-c2ccc3c(C(=O)NC4CC4)n[nH]c3c2)cc1C(=O)N[C@H](C)c1cccc(C(F)(F)F)c1 [Example 210, N-cyclopropyl-6-[6-(deutero)meth-oxy-5-{[(1R)-1-[3-(trifluorometh-yl)phenyl]ethyl]carbamoyl}pyridin-3-yl]-1H-indazole-3-carboxamide] | 450 | 88 | – |
| COc1ncc(-c2ccc3c(C(=O)NC4CC4)n[nH]c3c2)cc1C(=O)N[C@@H]1CN(C(=O)C2CCC(F)(F)C2)C[C@@H]1F (stereo partly drawn) [Example 199, N-cyclopropyl-6-(5-{[(3R,4S)-1-(3,3-difluorocyclopentanecarbon-yl)-4-fluoropyrrolidin-3-yl]-carbamoyl}-6-(deutero)methoxy-pyridin-3-yl)-1H-indazole-3-carboxamide, TFA] | 340 | – | 99 |
| CNC(=O)c1n[nH]c2cc(-c3cnc(OC)c(C(=O)NCc4cc(F)cc(F)c4OCC4CC4)c3)ccc12 [Example 128, 6-[5-({[2-(cyclopropylmeth-oxy)-3,5-difluorophenyl]-methyl}carbamoyl)-6-meth-oxypyridin-3-yl]-N-methyl-1H-indazole-3-carboxamide] | 2.3 | 3.1 | – |
| CCN(C)C(=O)C1CCCC(NC(=O)c2cc(-c3ccc4c(C(=O)NC)n[nH]c4c3)cnc2OC)C1 (stereo not shown) [Example 122, 6-[5-({3-[ethyl(methyl)carbam-oyl]cyclohexyl}carbamoyl)-6-methoxypyridin-3-yl]-N-methyl-1H-indazole-3-carboxamide] | 12 | – | 120 |
| CNC(=O)c1n[nH]c2cc(-c3cnc(OC)c(C(=O)NCC(C)(C)C(=O)OC(C)(C)C)c3)ccc12 [Example 90, tert-butyl 3-({2-methoxy-5-[3-(methylcarbamoyl)-1H-indazol-6-yl]pyridin-3-yl}-formamido)-2,2-dimethyl-propanoate] | 16 | 47 | – |
| CNC(=O)c1n[nH]c2cc(-c3cnc(OC)c(C(=O)NCc4cccc(OC(F)(F)F)c4F)c3)ccc12 [Example 119, 6-[5-({[2-fluoro-3-(trifluoro-methoxy)phenyl]methyl}-carbamoyl)-6-methoxy-pyridin-3-yl]-N-methyl-1H-indazole-3-carboxamide] | 33 | 110 | – |
| CNC(=O)c1n[nH]c2cc(-c3cnc(OC)c(C(=O)NCCCOCC(C)C)c3)ccc12 [Example 64, 6-(6-methoxy-5-{[3-(2-methyl-propoxy)propyl]carbamoyl}-pyridin-3-yl)-N-methyl-1H-indazole-3-carboxamide] | 8.1 | 3 | – |
| COc1ccccc1N1CC(NC(=O)c2n[nH]c3cc(-c4cnc(OC)c(C(=O)NCc5ccccc5OC(F)(F)F)c4)ccc23)CC1=O (stereo not shown) [Example 186, 6-[6-methoxy-5-({[2-(trifluoro-methoxy)phenyl]methyl}-carbamoyl)pyridin-3-yl]-N-[1-(2-methoxyphenyl)-5-oxo-pyrrolidin-3-yl]-1H-indazole-3-carboxamide] | 95 | 13 | – |
| CNC(=O)c1n[nH]c2cc(-c3cnc(OC)c(C(=O)NCc4cc(C(F)(F)F)ccn4)c3)ccc12 [Example 143, 6-[6-methoxy-5-({[4-(trifluoro-methyl)pyridin-2-yl]methyl}-carbamoyl)pyridin-3-yl]-N-methyl-1H-indazole-3-carboxamide] | 28 | 26 | – |
